Test results from patent US8592394B2, “Synthetic derivatives beta glycolipids and compositions thereof for the treatment of pathologic disorders” (Enzo Therapeutics, Inc., priority 2003, dated 2013).

Columns and labels:
STAT1 = test: Immunoblot of liver lysates: STAT1 phosphorylation; format: in vivo, mice; conditions: IP
Description: For ConA induced hepatitis experiments spleen and liver lysates were lysed in RIPA buffer containing 50 mM Tris, pH 7.4, 1% NP-40, 150 mM NaCl, 0.1% SDS, 0.5% sodium deoxycholate and protease inhibitors (5 μg/ml, Sigma), with protease and phosphatase (Sigma, Rehovot, Israel).
Lysates were centrifuged twice at 4° C. for 10 minutes in 14000 rpm. Equivalent amounts of lysates (15 μg/lane), determined by Bradford assay (Bio-Rad, Rehovot, Israel), were separated by sodium dodecyl sulfate polyacrylamide gel electrophoresis (SDS-PAGE) and transferred to nitrocellulose membranes.
For ConA induced hepatitis experiments proteins were detected with phospho-specific STAT1-Tyr701, STAT6-Tyr641, STAT1, and STAT6 antibodies from Cell Signaling. β-actin (abcam, UK) was used as a loading control.
Blots were developed with horseradish peroxidase-conjugated secondary antibodies (Jackson Laboratories Bar Harbor, Me.) and Western Blot-Luminol Reagent (Santa Cruz Biotechnology, CA, USA). Cell counting and western Blot quantification was performed using total Lab (Phoretix, USA) software.

[1] = tested on: intrahepatic and intrasplenic lymphocytes; test: FACS analysis of intrahepatic and intrasplenic lymphocytes (NKT, CD4, CD8); format: in vivo, mice
Description: Splenocytes and intrahepatic lymphocytes were isolated as follows: livers and spleens were kept in RPMI-1640+FCS. Then spleens were crushed through a 70 μm nylon cell strainer (Falcon) and centrifuged (1250 rpm for 7 min) for the removal of cell debris. Red blood cells were lysed with 1 ml of cold 155 mM ammonium chloride lysis buffer and centrifuged (1250 rpm for 3 min). Splenocytes were resuspended with 1 ml RPMI+FCS. Cell viability by trypan blue staining was above 90%. For intrahepatic lymphocytes, livers were crushed through a stainless mesh (size 60, Sigma) and the cell suspension was placed in a 50-ml tube for 5 min. Lymphoprep (10 ml, Ficoll, Axis-Shield PoC AS, Oslo, Norway) was placed under similar volume of cell suspension in 50-ml tubes. Tubes were centrifuged at 1800 rpm for 18 min. Cells in the interface were collected and centrifuged at 1800 rpm for 10 min, to obtain a pellet of cells depleted of hepatocytes to a final volume of 250 μl. Approximately 1×10^6 cells/mouse liver, were recovered.
For ConA induced hepatitis experiments, flow cytometry was performed immediately following splenocyte and hepatic lymphocyte isolation using 1×10^6 lymphocytes in 100 μl PBS with 0.1% BSA. To determine the percentage of NKT lymphocytes, FITC anti-mouse CD3 and PE anti-mouse NK1.1 antibodies were used (eBioscience, USA). CD4 and CD8 subsets were detected using FITC anti-mouse CD3 and PE-anti-mouse CD4 or CD8 antibodies. Cells were incubated for 30 min at 4° C. in the dark, washed, and resuspended in 200 μl of PBS with 0.1% BSA. Analytical cell sorting was performed for 1×10^6 cells from each group using a fluorescence-activated cell sorter (FACSTAR plus, Becton Dickinson). Only live cells were counted, and unstained cells served as controls for background fluorescence. Gates were set on the forward and side scatter to exclude dead cells and red blood cells. Data were analyzed using either the Consort 30 two-color contour plot program (Becton Dickinson, Oxnard, Calif.) or the CELLQuest 25 program.
(§1) Assessment of the effect of any of the synthetic analogs on the immune response was next determined by analysis of the cytokine serum level of IFNγ in each animal using a commercial “sandwich” ELISA kit, and by FACS analysis of intrahepatic and intrasplenic (peripheral) lymphocytes levels.

IL-6 = test: Serum IL-6 by ELISA in ConA induced hepatitis; format: in vivo, mice; conditions: intraperitoneal
Description: (§2) Serum levels of IFN-γ, TGF-β, TNF-α IL-2, IL-4, IL-6, IL-10 and IL-12 were determined by “sandwich” ELISA, using commercial kits (Quantikine, R&D Systems, Minneapolis, Minn., USA). Serum insulin was also determined by “sandwich” ELISA too, using the commercial kit of Mercodia AB (Uppsala, Sweden) according to the manufacturer's instructions.

IFN-γ = test: Serum IFN-γ by sandwich ELISA in ConA induced hepatitis; format: in vivo, mice
Description: as §2, §1

ob/ob mice [2] = test: Serum ALT and AST (hepatic injury) in ob/ob mice; format: in vivo; conditions: for serum AST: vehicle group A 710
Description: The effect of β-glycolipids on liver injury was evaluated by serum aspartyl transaminase (AST) and alanine aminotransferase (ALT) activities, which were determined by a clinical chemistry analyzer, Reflovet Plus (Roche Diagnostics, GmbH, Mannheim, Germany).
(§3) Therefore, five groups of male C57BL/6 Ob/Ob mice were studied. Mice (6 per group) were fed (per os) daily for 4 weeks with 15 or 45 μg of GC (groups B and C, respectively) and 15 or 45 μg of ALIB-97 (groups D and E, respectively). Control mice (Group A) were administered vehicle only.

ob/ob mice [3] = test: Fasting glucose and glucose tolerance test in ob/ob mice; format: in vivo
Description: Mice underwent a glucose tolerance test (GTT) on day 30 after overnight fasting. Glucose was administered orally (1.25 g per kg). Serum glucose measurements were performed on tail-vein blood every 15 min for 3 h. Glucose levels were measured by a standard glucometer.
as §3

TNF-α = test: Serum TNF-α by ELISA in ConA induced hepatitis; format: in vivo, mice; conditions: intraperitoneal
Description: as §2

[4] = B6 mice, intraperitoneal, 8 h, p<0.05
[5] = B6 mice, oral administration, p<0.05
[6] = ConA induced hepatitis, C57Bl/6 mice, intraperitoneal, low dosage 1 μg/mice

CCCCCCCCCCCCCC=CC(O)C(CO[C@@H]1OC(CO)[C@@H](O)C(O)C1O)NC(=S)NC12CC3CC(CC(C3)C1)C2 (stereo in doubt) [ALIB-97, N-adamantyl-N′-glucosylsphingosine thiourea]
STAT1 phosphorylation of Tyr 701 in the liver (STAT1; B6 mice): increased
STAT1 phosphorylation of Tyr 701 in the liver (STAT1; CD1d−/− mice): increased
splenic CD3/NKT cells ([1]; B6 mice, intraperitoneal, 8 h, p<0.01): significantly reduced
decrease of hepatic CD3/NKT cells [1, 4]: more than 55%
splenic CD3/CD4 cells [1, 4]: significantly reduced
splenic CD3/CD4 cells ([1]; B6 mice, intraperitoneal, 20 h): not affected
increase of hepatic CD3/CD4 cells ([1]; B6 mice, intraperitoneal, 20 h, p=0.01): 33%
hepatic CD3/CD8 lymphocytes ([1]; B6 mice, oral administration): unaffected
decrease in hepatic CD3/NK1.1 lymphocytes ([1]; B6 mice, oral administration, after 8 hours, p<0.05): 73%
increase of splenic CD3/NK1.1 lymphocytes [1, 5]: > 100%
reduction of splenic CD3/CD8 cells [1, 5]: 30%
reduction of splenic CD3/CD4 cells ([1]; B6 mice, oral administration, p=0.07): 23%
decrease in hepatic CD3/CD4 lymphocyte ratio ([1]; B6 mice, oral administration, p=0.08): 20%
intrahepatic NKT cell levels [1, 6]: decrease
intrahepatic/peripheral ratio of NKT cells [1, 6]: decrease
peripheral/intrahepatic ratio of the CD4/CD8 ratio [1, 6]: increase
serum IL-6 levels (IL-6; B6 mice): reduced
serum IL-6 levels (IL-6; Jα18−/− mice): reduced
serum IFN-γ levels (IFN-γ; B6 mice, intraperitoneal): marked decrease
serum IFN-γ levels (IFN-γ; B6 mice, oral administration, after 20 hours, vs control p<0.01): significant decrease
serum IFN-γ levels (IFN-γ; CD1d−/− KO mice, intraperitoneal): did not significantly alter
IFNγ serum levels (IFN-γ; [6]): decrease
serum IFN-γ levels (IFN-γ; Jα18−/− mice, intraperitoneal): substantial increase
serum AST (ob/ob mice [2]; day 30, 15 μg per os daily): 289 u/L
serum ALT (ob/ob mice [2]; day 30, 45 μg per os daily, vehicle group A 370, p<0.05): 165 u/L
serum AST (ob/ob mice [2]; day 30, 45 μg per os daily): 124 u/L
time at which the decrease in glucose levels (GTT, relative to time 0) reached statistical significance (ob/ob mice [3]; day 30, 15 μg per os daily): 90 min
time at which the decrease in glucose levels (GTT, relative to time 0) reached statistical significance (ob/ob mice [3]; day 30, 45 μg per os daily): 60 min
serum TNF-α secretion (TNF-α; B6 mice): modest effect
serum TNF-α levels (TNF-α; CD1d−/− KO mice): decreased
serum TNF-α levels (TNF-α; Jα18−/− KO mice): decreased
